{"source": "patent US20050143354A1", "about": "“Association of an antithrombotic and aspirin” (priority 2002, published 2005)", "test_system": "arterial thrombosis in the guinea-pig", "experiment": "arterial thrombosis test in the guinea-pig (cyclic flow reductions after carotid artery lesion)", "assay_type": "in vivo", "conditions": "aspirin 2 mg/kg i.v. alone; not different from control animals", "excerpt": "This test is based on the model initially described by Roux et al. (Thromb Haemost 71: 252-256, 1994). The guinea-pigs are anaesthetised using ketamine+xylazine (90+12) mg.kg i.m.. The trachea is cannulated and spontaneous respiration by the animals maintained. The jugular vein is cannulated, allowing the intravenous administration of the compounds being tested. The carotid artery is isolated, and a Doppler probe is installed allowing the arterial blood flow to be measured. After stabilisation, a lesion to the artery wall is produced by means of a clip applied distally to the Doppler probe. Subsequent to that lesion, the blood flow decreases. When the flow reaches zero, the artery is lightly shaken, which allows the flow to be restored. The thrombosis process continues, leading again to the flow reducing and ceasing. The thrombotic phenomena accordingly result in cyclic flow reductions (CFR), which are observed over a period of 20 minutes. After that period, the animal is treated, or not, with compound (A), and the CFR are again observed for a period of 20 minutes. The experiments are carried out in control animals or in animals treated by the intravenous route with aspirin (2 mg/kg).\nThis study was carried out using the sodium salt of the (R) isomer of compound (A).", "data": [{"smiles": "CC(=O)Oc1ccccc1C(=O)O", "note": "[aspirin]", "values": [{"measurement": "cyclic flow reductions (CFR)", "result": "8±1", "unit": "CFR/20 min"}]}]}
